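Each compound was tested at five concentrations against cells in 96-well plates for 48 hours. At the TGI there is no net growth.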
How the values were obtained:
Assay in all cases: NCI tumour cell line growth inhibition, 48 h
DMS 114 small cell lung = tested on: DMS 114 small cell lung
DMS 273 small cell lung = tested on: DMS 273 small cell lung
HOP-18 NSCLC = tested on: HOP-18 NSCLC
M19-MEL melanoma = tested on: M19-MEL melanoma
P388 leukemia = tested on: P388 leukemia
P388/ADR leukemia = tested on: P388/ADR leukemia
SN12K1 renal = tested on: SN12K1 renal
LXFL 529 NSCLC = tested on: LXFL 529 NSCLC

**Q.** What does the source list for `Cc1cccc2nc3c(C(=O)NCCN(C)C)cccc3cc12`?
**A.** TGI (DMS 114 small cell lung): 3.37 µM; TGI (DMS 273 small cell lung): 3.57 µM; TGI (HOP-18 NSCLC): 6.64 µM; TGI (M19-MEL melanoma): 4.42 µM; TGI (P388 leukemia): 11.7 µM; TGI (P388/ADR leukemia): 11.8 µM; TGI (SN12K1 renal): 5.26 µM

**Q.** What does the source list for `CCS(=O)(=O)Nc1ccc(Nc2c3ccccc3nc3ccccc23)c(OC)c1`?
**A.** TGI (DMS 114 small cell lung): 5.53 µM; TGI (DMS 273 small cell lung): 1.85 µM; TGI (HOP-18 NSCLC): 7.92 µM; TGI (M19-MEL melanoma): 16.6 µM; TGI (P388 leukemia): 0.214 µM; TGI (P388/ADR leukemia): 1.53 µM; TGI (SN12K1 renal): 4.11 µM

**Q.** For `COc1cc(C2C(C(=O)O)=C(CO)Oc3cc4c(cc32)OCO4)cc(OC)c1O` (stereo unspecified), which TGI (DMS 114 small cell lung) is on record?
**A.** Its TGI is over 100 µM.

**Q.** And the TGI (DMS 273 small cell lung)?
**A.** Its TGI is over 100 µM.

**Q.** And the TGI (HOP-18 NSCLC)?
**A.** The TGI was over 100 µM.

**Q.** For `CCOC(=O)c1nc2ccc(Cl)cc2c2c1Cc1ccccc1-2`, which TGI (DMS 273 small cell lung) is on record?
**A.** The TGI was over 100 µM.

**Q.** What about the TGI (HOP-18 NSCLC) of the same molecule?
**A.** The TGI was over 100 µM.

**Q.** What about the TGI (LXFL 529 NSCLC) of the same molecule?
**A.** Its TGI is over 100 µM.

**Q.** And the TGI (M19-MEL melanoma)?
**A.** Its TGI is over 100 µM.

From PubChem BioAssay (NCI)
